Results taken from PubChem BioAssay (NCI).
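The compound was tested at five concentrations on cells cultured in 96-well plates, with a 48-hour exposure period. GI50 is the concentration that inhibits growth by half. TGI is the concentration that stops growth completely.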

Tests used:
Test in all cases: NCI-60 cell line screen, 48 h
[1] = system: 786-0 renal
[2] = system: A498 renal
[3] = system: A549 NSCLC
[4] = system: ACHN renal
[5] = system: BT-549 breast
[6] = system: CAKI-1 renal
[7] = system: CCRF-CEM leukemia
[8] = system: COLO 205 colon
[9] = system: DU-145 prostate
[10] = system: EKVX NSCLC
[11] = system: HCC-2998 colon
[12] = system: HCT-116 colon
[13] = system: HCT-15 colon
[14] = system: HL-60(TB) leukemia
[15] = system: HOP-62 NSCLC
[16] = system: HOP-92 NSCLC
[17] = system: HS 578T breast
[18] = system: HT29 colon
[19] = system: IGROV1 ovarian
[20] = system: KM12 colon
[21] = system: LOX IMVI melanoma
[22] = system: M14 melanoma
[23] = system: MALME-3M melanoma
[24] = system: MCF7 breast
[25] = system: MDA-MB-231 breast
[26] = system: MDA-MB-435
[27] = system: MOLT-4 leukemia
[28] = system: NCI-H226 lung
[29] = system: NCI-H23 lung
[30] = system: NCI-H460 lung
[31] = system: NCI-H522 lung
[32] = system: NCI/ADR-RES ovarian
[33] = system: OVCAR-3 ovarian
[34] = system: OVCAR-4 ovarian
[35] = system: OVCAR-5 ovarian
[36] = system: OVCAR-8 ovarian
[37] = system: PC-3 prostate
[38] = system: RPMI-8226 leukemia
[39] = system: RXF 393 renal
[40] = system: SF-268 CNS
[41] = system: SF-295 CNS
[42] = system: SF-539 CNS
[43] = system: SK-MEL-2 melanoma
[44] = system: SK-MEL-28 melanoma
[45] = system: SK-MEL-5 melanoma
[46] = system: SK-OV-3 ovarian
[47] = system: SN12C renal
[48] = system: SNB-19 CNS
[49] = system: SNB-75 CNS
[50] = system: SR leukemia
[51] = system: SW-620 colon
[52] = system: TK-10 renal
[53] = system: U251 CNS
[54] = system: UACC-257 melanoma
[55] = system: UACC-62 melanoma
[56] = system: T-47D breast
[57] = system: UO-31 renal

In the case of `Cn1c2ccccc2c(=O)c2c(O)cc3c(c21)C=CC1(CCCC1)O3`, the TGI [1] is reported as greater than 100 µM, the TGI [2] is reported as greater than 100 µM and the TGI [3] is reported as greater than 100 µM. The TGI [4] was greater than 100 µM, the TGI [5] was greater than 100 µM and the TGI [6] was greater than 100 µM. For the same compound, the TGI [7] was greater than 100 µM, the TGI [8] was greater than 100 µM and the TGI [9] was greater than 100 µM. The TGI [10] was greater than 100 µM, the TGI [11] was greater than 100 µM and the TGI [12] was greater than 100 µM. The TGI [13] was greater than 100 µM, the TGI [14] was greater than 100 µM and the TGI [15] was greater than 100 µM. The TGI [16] was greater than 100 µM, the TGI [17] was greater than 100 µM and the TGI [18] was greater than 100 µM. For the same compound, the TGI [19] was greater than 100 µM, the TGI [20] was greater than 100 µM and the TGI [21] was greater than 100 µM. For the same compound, the TGI [22] was greater than 100 µM, the TGI [23] was greater than 100 µM and the TGI [24] was greater than 100 µM. It also gave a TGI [25] greater than 100 µM, a TGI [26] greater than 100 µM and a TGI [27] greater than 100 µM. It also gave a TGI [28] greater than 100 µM, a TGI [29] greater than 100 µM and a TGI [30] greater than 100 µM. It also gave a TGI [31] greater than 100 µM, a TGI [32] greater than 100 µM and a TGI [33] greater than 100 µM. It also gave a TGI [34] greater than 100 µM, a TGI [35] greater than 100 µM and a TGI [36] greater than 100 µM. For the same compound, the TGI [37] was greater than 100 µM, the TGI [38] was greater than 100 µM and the TGI [39] was greater than 100 µM. The TGI [40] was greater than 100 µM, the TGI [41] was greater than 100 µM and the TGI [42] was greater than 100 µM. It also gave a TGI [43] greater than 100 µM, a TGI [44] greater than 100 µM and a TGI [45] greater than 100 µM. It also gave a TGI [46] greater than 100 µM, a TGI [47] greater than 100 µM and a TGI [48] greater than 100 µM. The TGI [49] was greater than 100 µM, the TGI [50] was greater than 100 µM and the TGI [51] was greater than 100 µM. The TGI [52] was greater than 100 µM, the TGI [53] was greater than 100 µM and the TGI [54] was greater than 100 µM. For the same compound, the TGI [55] was greater than 100 µM.

In the case of `COc1cc2nc(-c3ccc(-n4cncc4-c4ccc(N)cc4)cc3)sc2c(OC)c1OC`, the GI50 [1] is reported as 6.26 µM, the TGI [1] is reported as greater than 100 µM and the GI50 [2] is reported as 2.13 µM. It also gave a TGI [2] greater than 100 µM, a GI50 [3] of 3.14 µM and a TGI [3] of 32.5 µM. It also gave a GI50 [4] of 8.56 µM, a TGI [4] greater than 100 µM and a GI50 [6] of 1.41 µM. It also gave a TGI [6] of 5.85 µM, a GI50 [9] of 7.25 µM and a TGI [9] greater than 100 µM. For the same compound, the GI50 [10] was 2.49 µM, the TGI [10] was 75.9 µM and the GI50 [12] was 3.81 µM. It also gave a TGI [12] greater than 100 µM, a GI50 [16] of 0.446 µM and a TGI [16] of 4.08 µM. For the same compound, the GI50 [17] was 5.36 µM, the TGI [17] was 49.7 µM and the GI50 [18] was 2.79 µM. The TGI [18] was greater than 100 µM, the GI50 [19] was 2.63 µM and the TGI [19] was 20.2 µM. The GI50 [21] was 3.65 µM, the TGI [21] was greater than 100 µM and the GI50 [22] was 2.1 µM. It also gave a TGI [22] greater than 100 µM, a GI50 [23] of 0.71 µM and a TGI [23] of 6.44 µM. The GI50 [24] was 3.02 µM, the TGI [24] was greater than 100 µM and the GI50 [25] was 3.66 µM. For the same compound, the TGI [25] was greater than 100 µM, the GI50 [28] was 4.73 µM and the TGI [28] was 40.6 µM. The GI50 [29] was 3.87 µM, the TGI [29] was 23.7 µM and the GI50 [30] was 5.13 µM. For the same compound, the TGI [30] was greater than 100 µM, the GI50 [31] was 2.74 µM and the TGI [31] was 21.6 µM. The GI50 [32] was 1.61 µM, the TGI [32] was 6.43 µM and the GI50 [33] was 2.73 µM. For the same compound, the TGI [33] was 15.1 µM, the GI50 [34] was 3.6 µM and the TGI [34] was 32.1 µM. The GI50 [35] was 34.3 µM, the TGI [35] was greater than 100 µM and the GI50 [36] was 4.23 µM. For the same compound, the TGI [36] was 57.8 µM, the GI50 [37] was 3.02 µM and the TGI [37] was 49.2 µM. It also gave a GI50 [39] of 4.41 µM, a TGI [39] of 21.1 µM and a GI50 [40] of 12.3 µM. For the same compound, the TGI [40] was 62.1 µM, the GI50 [41] was 1.53 µM and the TGI [41] was 7.14 µM. The GI50 [42] was 7.14 µM, the TGI [42] was greater than 100 µM and the GI50 [44] was greater than 100 µM. For the same compound, the TGI [44] was greater than 100 µM, the GI50 [45] was 2.74 µM and the TGI [45] was greater than 100 µM. For the same compound, the GI50 [46] was 11.7 µM, the TGI [46] was 31.3 µM and the GI50 [47] was 8.95 µM. For the same compound, the TGI [47] was greater than 100 µM, the GI50 [48] was 12.3 µM and the TGI [48] was 51.1 µM. The GI50 [49] was 5.94 µM, the TGI [49] was 23.5 µM and the GI50 [56] was 1.59 µM. For the same compound, the TGI [56] was 6.71 µM, the GI50 [52] was 4.93 µM and the TGI [52] was greater than 100 µM. For the same compound, the GI50 [53] was 3.84 µM, the TGI [53] was 17 µM and the GI50 [54] was 6.4 µM. The TGI [54] was greater than 100 µM, the GI50 [55] was 5.45 µM and the TGI [55] was greater than 100 µM. For the same compound, the GI50 [57] was 1.55 µM and the TGI [57] was 6.87 µM.
